# Source: publication PMC4884960, “Long lasting MDM2/Translocator protein modulator: a new strategy for irreversible apoptosis of human glioblastoma cells” (Oncotarget, 2016)
# Experiments:
# [1] = test system: mesenchymal Stem Cells (MSCs) isolated from human bone marrow; assay: Toxicity in non-tumour cells, MSC proliferation by MTS assay; format: cell-based; conditions: 72 h; EB54 at 10 μM; EB148 up to the highest concentration tested
# Description: […]. At the end of treatments, cell proliferation was measured by MTS assay.
# U87MG cells [2] = assay: U87MG cell proliferation, MTS assay; format: cell-based, human
# Description: The effects of compound treatment on U87MG cell viability and proliferation were evaluated by Trypan blue exclusion assays and MTS assay, respectively. […] For quantization of cell viability, blue and bright cells were counted, and viability was calculated as the number of living (bright) and dead (blue) cells in each well.
# The absorbance of formazan at 490 nm was measured in a colorimetric assay with an automated plate reader (Victor Wallac 2, Perkin Elmer). For wash-out experiments, U87MG cells were treated with EB148 or EB54 (100 nM-10 μM) for 72 h. Following incubation, medium-containing drugs was replaced by fresh medium, and cells were allowed to growth for the indicated days. At the end of treatments, cell proliferation was measured by MTS assay. The results were calculated by subtracting the mean background from the values obtained from each evaluation and were expressed as the percentage of the control (untreated cells). Sigmoid dose-response curve was generated, from which the IC50 values were derived.
# U87MG cells [3] = assay: Annexin V and 7-AAD staining (apoptosis); format: cell-based, human; conditions: 1 μM, 24 h
# Description: Dual staining with Annexin V coniugated to fluorescein-isothiocyanate (FITC) and 7-amino-actinomysin (7-AAD) was performed using the commercially available kit (Muse Annexin V and Dead Cell Kit; Merck KGaA, Darmstadt, Germany).
# U87MG cells were treated with DMSO (control), EB54 or EB148 (1 μM) for 24 h. Both floating and adherent cells were collected, and incubated for 10 min at room temperature with the fluorescent reagent. After incubation, the percentages of living, apoptotic and dead cells were acquired and analyzed by MuseTM Cell Analyzer in accordance to the manufacture's guidelines.
# ERK1/2 = ERK1/2 phosphorylation ELISA in U87MG cells; format: cell-based, human
# Description: Figure 10 ERK phosphorylation and levels of ERK/MDM2 complex in U87MG cells A. U87MG cells were treated with DMSO (control), 1 μΜ EB148 or 1 μΜ EB54 for the indicated times; in some experiments, after 2 h of treatment the medium was replaced by fresh medium not containing drugs for an additional 2 h. At the end of the treatment period the levels of ERK 1/2 phosphorylation were evaluated using ELISA kits, as described in the Methods section. The data are expressed as the percentage of phosphorylated ERK1/2 versus untreated cells (control), which were set at 100%. Data are the mean values ± SEM of three independent experiments performed in triplicate. Analysis of significant differences in mean ERK/MDM2 complex levels was performed using one-way ANOVA with a Bonferroni post-test: * p< 0.05, ** p< 0.01, *** p<0.001 vs. control. […] C. U87MG cells were treated with DMSO (control), 1 μΜ EB148 or 1 μΜ EB54 for the indicated times; in some experiments, after 8 h of treatment, the medium was replaced by fresh medium not containing drugs for an additional 24 h. At the end of the treatment period, U87MG cells were collected and suspended in lysis buffer. Equal amounts of cell lysates were captured on wells pre-coated with MDM2 antibody. After extensive washing, the levels of the ERK/MDM2 complex were quantified using an antibody specific for ERKs, and subsequently an HRP-conjugated antibody and a TMB substrate kit. Data are expressed as percentage of control set to 100%, and represent the mean ± SEM of three independent experiments. The significance of the differences was determined with a one-way ANOVA with Bonferroni post-test: * p<0.05, ** p<0.01, *** p<0.001 vs. control.
# [4] = test system: p53 target genes (p53, p21 and MDM2); assay: Relative mRNA quantification of p53 target genes by real-time RT-PCR; format: cell-based, human
# Description: In brief, total RNA was extracted from control cells as well as from cells treated with EB148 or EB54 (1 μM) for different times (8 h, 16 h or 24 h), using RneasyH Mini Kit (Qiagen, Hilden, Germany), according to manufacturer's instructions. cDNA synthesis was performed with 500 ng of RNA using i-Script cDNA synthesis kit (BioRad, Hercules, USA). RT-PCR reactions consisted of 25 μl FluocycleH II SYBRH (Euroclone, Milano, Italy), 1.5 μl of both 10 μM forward and reverse primers (listed in [56]), 3 μl cDNA, and 19 μL of H2O. […] PCR specificity was verified by both the melting curve analysis and gel electrophoresis.
# MDM2/p53 complex = biological target: T1, MDM2/p53 complex (Homo sapiens, UniProt Q00987); assay: Association and dissociation kinetics towards MDM2 in U87MG cell lysates; format: biochemical; conditions: lysates treated at ten-fold IC50, diluted 1:20, 0-180 min
# T1 construct: endogenous in cells; host or cells: crude lysates of U87MG human glioblastoma cells
# Description: Following incubation, cell lysates were captured on wells pre-coated with MDM2 antibody for an additional 60 min.
# Dissociation was initiated by the addition of 20 volumes of cold buffer, and lysates were further incubated at 4°C for the indicated times (0-180 min). Following incubation, 200 μl of the mixture were captured on wells pre-coated with MDM2 antibody for an additional 60 min.
# ERK/MDM2 complex = assay: Levels of ERK/MDM2 complex in U87MG cells (ELISA); format: cell-based, human
# Description: U87MG cells were treated with DMSO (control), EB148 or EB54 for different times. When indicated, after 8 h of incubation, cells were washed twice with fresh saline and cultured in drug-free medium for an additional 24 h. At the end of the treatment period, the cells were collected, and suspended in lysis buffer containing 1% of the Protease inhibitor Cocktail.
# T1 sequence (Q00987 whole entry, one chain of several): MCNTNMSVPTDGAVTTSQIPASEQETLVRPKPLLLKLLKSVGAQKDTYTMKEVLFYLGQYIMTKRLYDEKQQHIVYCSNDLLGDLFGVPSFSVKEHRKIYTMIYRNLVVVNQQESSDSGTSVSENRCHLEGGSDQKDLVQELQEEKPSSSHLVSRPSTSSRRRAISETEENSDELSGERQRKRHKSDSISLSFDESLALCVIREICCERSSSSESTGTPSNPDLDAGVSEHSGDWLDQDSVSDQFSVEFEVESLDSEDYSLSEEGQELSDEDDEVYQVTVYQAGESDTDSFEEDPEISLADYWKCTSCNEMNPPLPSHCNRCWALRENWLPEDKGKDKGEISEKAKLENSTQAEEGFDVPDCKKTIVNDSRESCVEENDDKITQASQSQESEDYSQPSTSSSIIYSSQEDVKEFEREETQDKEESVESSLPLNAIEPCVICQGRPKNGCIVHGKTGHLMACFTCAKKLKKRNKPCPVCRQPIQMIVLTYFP
smiles,measurement,setting,value
CCOC(=O)[C@@H](Cc1ccccc1)NC(=O)[C@H](CC(C)C)NC(=O)C(=O)c1c(-c2ccccc2)[nH]c2ccc(N=C=S)cc12 [EB148],MSC viability/proliferation,[1],did not affect MSC proliferation
same,IC50,"U87MG cells [2]; Homo sapiens, U-87 MG, 72 h, read-out: IC50 of cell proliferation",0.0916 ± 0.0089 µM
same,cell proliferation 72 h after cell wash-out,"U87MG cells [2]; U87MG, 72 h treatment, then drug-free medium 72 h",inhibition of cell proliferation was maintained
same,phosphatidylserine externalization (early and late apoptosis),U87MG cells [3],significant phoshpatidilserine externalization
same,ERK activation after cell wash-out,"ERK1/2; 1 μM for 2 h, then drug-free medium for 2 h",continued to significantly activate
same,ERK1/2 phosphorylation,"ERK1/2; 1 μM, up to 8 h",significant ERK phosphorylation
same,effect of blocking p53 on compound-mediated ERK1/2 activation,"ERK1/2; pifithrin-β 1 μM 30 min, then compound 1 μM 2 h",completely impaired
same,induction of MDM2 mRNA,"[4]; 1 μM, 8 h",6.9 fold
same,induction of MDM2 mRNA,"[4]; 1 μM, 16 h",8.8 fold
same,induction of MDM2 mRNA,"[4]; 1 μM, 24 h",2.2 fold
same,mRNA expression of p53 target genes,"[4]; 1 μM, up to 24 h of cell treatment",sustained increase
same,levels of p53 target gene transcripts after wash-out,"[4]; treated for 2 h (text; legend: 16 h), washed out for 16 h in drug-free medium",returned to control values
same,activity in inhibiting p53-MDM2 complex after sample dilution,MDM2/p53 complex,maintained unchanged
same,ERK/MDM2 association after cell wash-out,"ERK/MDM2 complex; 1 μM for 8 h, then wash-out for 24 h",remained significant
same,ERK/MDM2 complex formation,"ERK/MDM2 complex; 1 μM, 8 and 24 h",significant and marked induction
